Measurements from patent publication US20120202856A1, “SUBSTITUTED BENZIMDAZOLE DERIVATIVES USEFUL AS TRPM8 RECEPTOR MODULATORS” (priority 2011, published 2012).
Several values for one entry are separate records, joined by “and”; a condition that tells them apart may be missing. Equal entries are not always repeated. Structures can show the parent of a compound that is named as a salt. Where two headings read alike, the source gives them in different places.

Biological target: T1, canine TRPM8 (Canis lupus familiaris, UniProt Q1A7N1)
T1 construct: expressed in transfected cells
T1 sequence (Q1A7N1 1-1104): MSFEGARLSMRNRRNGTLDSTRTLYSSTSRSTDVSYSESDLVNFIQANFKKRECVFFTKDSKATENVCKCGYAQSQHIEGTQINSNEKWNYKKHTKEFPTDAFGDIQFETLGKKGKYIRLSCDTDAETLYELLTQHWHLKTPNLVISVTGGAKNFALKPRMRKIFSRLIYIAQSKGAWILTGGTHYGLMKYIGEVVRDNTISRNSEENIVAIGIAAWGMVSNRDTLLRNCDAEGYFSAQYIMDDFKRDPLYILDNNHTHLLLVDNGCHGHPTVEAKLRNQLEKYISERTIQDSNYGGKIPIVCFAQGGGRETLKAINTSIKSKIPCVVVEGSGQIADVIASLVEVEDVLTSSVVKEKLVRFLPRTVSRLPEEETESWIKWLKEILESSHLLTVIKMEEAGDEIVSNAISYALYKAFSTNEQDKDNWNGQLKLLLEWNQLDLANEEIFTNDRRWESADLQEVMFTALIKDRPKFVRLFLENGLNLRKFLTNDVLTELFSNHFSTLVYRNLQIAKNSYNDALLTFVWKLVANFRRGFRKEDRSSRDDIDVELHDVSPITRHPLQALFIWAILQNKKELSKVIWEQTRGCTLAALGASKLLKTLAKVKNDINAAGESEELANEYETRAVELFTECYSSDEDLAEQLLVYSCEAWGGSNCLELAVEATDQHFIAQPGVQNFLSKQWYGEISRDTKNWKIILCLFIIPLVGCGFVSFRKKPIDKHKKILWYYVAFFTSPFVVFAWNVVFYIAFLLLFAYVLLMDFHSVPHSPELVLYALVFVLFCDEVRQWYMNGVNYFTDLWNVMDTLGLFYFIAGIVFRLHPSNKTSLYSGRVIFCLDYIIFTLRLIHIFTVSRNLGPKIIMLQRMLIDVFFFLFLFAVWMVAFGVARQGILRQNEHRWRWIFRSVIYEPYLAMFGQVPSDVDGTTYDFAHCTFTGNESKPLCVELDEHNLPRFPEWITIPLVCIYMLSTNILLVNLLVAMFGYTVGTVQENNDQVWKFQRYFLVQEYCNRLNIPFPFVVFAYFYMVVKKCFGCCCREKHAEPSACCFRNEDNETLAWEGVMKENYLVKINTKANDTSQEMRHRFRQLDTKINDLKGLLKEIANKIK
Experiment: In Vitro Canine TRPM8 Functional Assay (intracellular Ca2+ fluorescence, icilin activation, HEK293 cells)
Format: cell-based
Conditions: for IC50: HEK293 cells expressing canine TRPM8, icilin activation, individually measured values (batches/salt forms), read-out: IC50 (nM), in vitro TRP M8 Activity
Experimental: The changes in fluorescent signal were monitored by a fluorescence plate reader, either a FLIPR™ (Molecular Devices) or FDSS (Hamamatsu). […] Cells were maintained in 5% CO2 at 37° C. At 24 hr prior to assay, cells were seeded in black wall, clear-base poly-D-lysine coated 384-well plates (BD Biosciences, NJ, USA) at a density of 5,000 cells per well in culture medium and grown overnight in 5% CO2 at 37° C. On assay day, growth media was removed, and cells were loaded with Calcium 3 Dye (Molecular Devices) for 35 min at 37° C., under 5% CO2 and then incubated for 25 min at room temperature and atmosphere. Subsequently, cells were tested for agonist-induced increases in intracellular Ca^2+ levels using FLIPR™ or FDSS. […] Maximal fluorescence intensity (FI) achieved upon addition of icilin was exported from the FLIPR™ or FDSS software and further analyzed using GraphPad Prism 3.02 (Graph Pad Software Inc., CA, U.S.A.). Basal FI was subtracted prior to normalizing data to percent of maximal response. Curves were generated using the average of quadruplicate wells for each data point using nonlinear regression of either sigmoidal dose response or sigmoidal dose response (variable slope). Finally, IC50 values were calculated with the best-fit curve determined by GraphPad Prism

[1] = HEK293, 0.2 μM test compound, individually measured values, read-out: % Inh (%) @0.2 μM, in vitro TRP M8 Activity

SMILES | IC50 | inhibition at 0.2 µM [1] | also measured
Cn1nc(C(C)(C)C)nc1-c1nc2cc(-c3ccccc3C(F)(F)F)cc(C(F)(F)F)c2[nH]1 [Compound 192, 2-(5-tert-Butyl-2-methyl-2H-[1,2,4]triazol-3-yl)-7-trifluoromethyl-5-(2-trifluoromethyl-phenyl)-1H-benzimidazole sodium salt] | 7.5 nM | – | –
COc1cccc(F)c1-c1ccc2[nH]c(-c3cc(C(C)(C)C)no3)nc2c1 [Compound 64, 2-(3-tert-Butyl-isoxazol-5-yl)-5-(2-fluoro-6-methoxy-phenyl)-1H-benzimidazole trifluoroacetic acid salt] | 8.7 nM | – | –
FC(F)(F)Oc1ccccc1-c1ccc2nc(-c3cc(C4CCCCC4)no3)[nH]c2c1 [Compound 25, 2-(3-Cyclohexylisoxazol-5-yl)-6-(2-trifluoromethoxyphenyl)-1H-benzimidazole hydrochloride] | – | 63% | –
Cn1nc(C(F)(F)F)cc1-c1nc2cc(-c3ccccc3OC(F)(F)F)ccc2[nH]1 [Compound 41, 2-(5-Trifluoromethyl-2-methyl-2H-pyrazol-3-yl)-5-(2-trifluoromethoxyphenyl)-1H-benzimidazole sodium salt] | 133 nM | – | –
Cc1c(C(C)(C)C)noc1-c1nc2cc(-c3ccccc3F)ccc2[nH]1 [Compound 106, 2-(3-tert-Butyl-4-methyl-isoxazol-5-yl)-5-(2-fluoro-phenyl)-1H-benzimidazole hydrochloride] | 21.8 nM | – | –
Cc1oc(C(C)(C)C)cc1-c1nc2cc(-c3ccccc3F)ccc2[nH]1 [Compound 174, 2-(5-tert-Butyl-2-methyl-furan-3-yl)-5-(2-fluoro-phenyl)-1H-benzimidazole sodium salt] | 33.4 nM | 83% | –
FC(F)(F)c1ccccc1-c1ccc2[nH]c(-c3cc(C4CC4)no3)nc2c1 [Compound 16, 2-(3-cyclopropylisoxazol-5-yl)-5-(2-trifluoromethylphenyl)-1H-benzimidazole sodium salt] | 58 nM | – | –
CC(CO)n1nc(C(C)(C)C)cc1-c1nc2cc(-c3ccccc3C(F)(F)F)ccc2[nH]1 (stereo not drawn) [Compound 101, 2-{3-tert-Butyl-5-[5-(2-trifluoromethylphenyl)-1H-benzimidazol-2-yl]-pyrazol-1-yl}-propan-1-ol hydrochloride] | – | 33% | –
CCC(CC)c1cc(-c2nc3ccc(-c4ccccc4OC(F)(F)F)cc3[nH]2)on1 [Compound 27, 2-[3-(1-Ethylpropyl)-isoxazol-5-yl]-6-(2-trifluoromethoxyphenyl)-1H-benzimidazole hydrochloride] | 46 nM | – | –
Cn1nc(C(C)(C)C)c(C#N)c1-c1nc2cc(-c3ccccc3C(F)(F)F)cc(C(F)(F)F)c2[nH]1.[Na] [Compound 149, 3-tert-Butyl-1-methyl-5-[7-trifluoromethyl-5-(2-trifluoromethyl-phenyl)-1H-benzimidazol-2-yl]-1H-pyrazole-4-carbonitrile sodium salt] | 3.8 nM and 5.1 nM and 3.2 nM | – | % Inh (%) @0.2 μM, in vitro TRP M8 Activity (0.2 μM test compound, individually measured values, sodium salt, 0.2 µM): 99%; inhibition at 0.2 µM (HEK293, read-out: % Inh (%) @0.2 μM, in vitro TRP M8 Activity, 0.2 μM test compound, individually measured values): 100%
Cn1nc(C(C)(C)C)c(C(F)(F)F)c1-c1nc2cc(-c3ccccc3F)cc(C(F)(F)F)c2[nH]1 [Compound 185, 2-(5-tert-Butyl-2-methyl-4-trifluoromethyl-2H-pyrazol-3-yl)-5-(2-fluoro-phenyl)-7-trifluoromethyl-1H-benzimidazole sodium salt] | 13.8 nM | 99% | –
CC(C)(C)c1ncc(-c2nc3cc(-c4ccccc4C(F)(F)F)ccc3[nH]2)s1 [Compound 100, 2-(2-tert-Butyl-thiazol-5-yl)-5-(2-trifluoromethyl-phenyl)-1H-benzimidazole hydrochloride] | 33.7 nM | 91% | –
COc1ccccc1-c1ccc2[nH]c(-c3cc(C4CC4)no3)nc2c1 [Compound 15, 2-(3-cyclopropylisoxazol-5-yl)-5-(2-methoxyphenyl)-1H-benzimidazole sodium salt] | 70 nM | – | –
